Assay results published in ChEMBL document CHEMBL5214929, “Updated chemical scaffolds of ABCG2 inhibitors and their structure-inhibition relationships for future development” (Eur J Med Chem, 2022).

What was measured:
HEK293 [1] = assay: Cytotoxicity against HEK293 cells expressing ABCG2-R-482 in presence of methotrexate; assay type: functional, cell-based; details: Homo sapiens
[2] = biological target: T1, Broad substrate specificity ATP-binding cassette transporter ABCG2 (Homo sapiens, UniProt Q9UNQ0); assay: Inhibition of ABCG2 (unknown origin) in Sf9 membrane vesicles using [3H] methotrexate as substrate; assay type: cell membranes
T1 sequence (Q9UNQ0 whole entry): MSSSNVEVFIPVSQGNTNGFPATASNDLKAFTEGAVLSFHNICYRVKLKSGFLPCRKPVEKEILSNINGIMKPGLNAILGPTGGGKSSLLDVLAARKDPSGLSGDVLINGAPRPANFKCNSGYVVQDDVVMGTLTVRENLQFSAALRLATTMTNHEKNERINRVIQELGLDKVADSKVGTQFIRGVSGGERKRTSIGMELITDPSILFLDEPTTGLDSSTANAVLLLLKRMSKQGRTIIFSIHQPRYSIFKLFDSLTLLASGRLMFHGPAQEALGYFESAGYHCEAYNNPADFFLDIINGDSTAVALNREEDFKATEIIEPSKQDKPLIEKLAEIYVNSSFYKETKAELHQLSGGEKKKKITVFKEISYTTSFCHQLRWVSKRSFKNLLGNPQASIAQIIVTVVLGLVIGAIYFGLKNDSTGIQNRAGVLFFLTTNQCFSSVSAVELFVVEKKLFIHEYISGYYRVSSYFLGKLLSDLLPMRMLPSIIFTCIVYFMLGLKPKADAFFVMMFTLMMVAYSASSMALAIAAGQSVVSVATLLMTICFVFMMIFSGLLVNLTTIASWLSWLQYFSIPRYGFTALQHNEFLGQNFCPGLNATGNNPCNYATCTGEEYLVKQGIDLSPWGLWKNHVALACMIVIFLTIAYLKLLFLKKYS

[3] = Reversal of mitoxantrone resistance in human T8 cells; assay type: functional; details: T8 cell
MCF7 = assay: Cytotoxicity against human MCF7 cells assessed as increase in cytotoxic drug half inhibitory concentration; assay type: functional, cell-based
[4] = biological target: T1, Broad substrate specificity ATP-binding cassette transporter ABCG2; assay: Inhibition of ABCG2 (unknown origin) overexpressing in dog MDCK-II-BCRP cells measured after 30 mins by flow cytometric analysis; assay type: cell-based
[5] = biological target: T1, Broad substrate specificity ATP-binding cassette transporter ABCG2; assay: Inhibition of ABCG2 (unknown origin)
HEK293 [6] = assay: Cytotoxicity against HEK293 cells expressing ABCG2-482-R in presence of methotrexate; assay type: functional, cell-based; details: Homo sapiens
HEK293 [7] = assay: Cytotoxicity against HEK293 cells expressing ABCG2-482-T7 in presence of methotrexate; assay type: functional, cell-based; details: Homo sapiens
HEK293 [8] = assay: Cytotoxicity against HEK293 cells expressing ABCG2 in presence of methotrexate; assay type: functional, cell-based; details: Homo sapiens
S1-M1-80 = assay: Cytotoxicity against human S1M180 cells in presence of topotecan; assay type: functional, cell-based
HEK293 [9] = assay: Cytotoxicity against HEK293 cells expressing ABCG2-R-482 wildtype assessed as decrease in mitoxantrone half inhibitory concentration; assay type: functional, cell-based; details: Homo sapiens
HEK293 [10] = assay: Cytotoxicity against HEK293 cells expressing ABCG2-R-482 mutant assessed as decrease in mitoxantrone half inhibitory concentration; assay type: functional, cell-based; details: Homo sapiens

With `Nc1ncnc2c1c(-c1ccc(Oc3ccccc3)cc1)nn2C1CCCC1` the IC50 (HEK293 [1]) was 57 nM.
Compound `C=CC(O)C#CC#CC/C=C\CCCCCCC` (stereo not given) has an IC50 [2] of 41700 nM.
In the case of `C=CC(O)C#CC#CC(O)/C=C\CCCCCCC` (stereo not given), the IC50 [2] is reported as 29700 nM.
Compound `COc1ccc2c3c([nH]c2c1)[C@@H](CC(C)C)N1C(=O)[C@@H](CCC(=O)OC(C)(C)C)NC(=O)[C@@H]1C3` has an EC90 [3] of 23 nM.
Work on `CC(C)C[C@@H]1c2[nH]c3ccccc3c2C[C@H]2C(=O)N[C@H](CCCCNC(=O)OC(C)(C)C)C(=O)N12` yielded an EC90 [3] of 190 nM.
With `COc1ccc2c3c([nH]c2c1)[C@@H](C=C(C)C)N1C(=O)[C@@H]2CCCN2C(=O)[C@@H]1C3` the IC50 (MCF7) was 1000 nM.
For `COc1ccc(-c2c3occc3c(OC[C@H]3OC3(C)C)c3ccc(=O)oc23)cc1OC`, the IC50 [4] was 43100 nM.
For `CC(C)C[C@@H]1c2[nH]c3ccccc3c2C[C@H]2C(=O)N[C@H](CCC(=O)OC(C)(C)C)C(=O)N12`, the EC90 [3] was 85 nM.
With `Cn1cc(-c2cc3c(N4CCN(c5ncc([C@@](C)(N)c6ccc(F)cc6)cn5)CC4)ncnn3c2)cn1` [AVAPRITINIB] the IC50 [5] was 1.5 nM.
`COc1cc2nccc(Oc3ccc(NC(=O)C4(C(=O)Nc5ccc(F)cc5)CC4)cc3)c2cc1OC` [CABOZANTINIB] showed an IC50 (HEK293 [6]) of 27 nM and an IC50 (HEK293 [7]) of 34 nM.
For `COc1cc2ncnc(Nc3ccc(F)c(Cl)c3)c2cc1NC(=O)/C=C/CN1CCCCC1` [DACOMITINIB ANHYDROUS], the IC50 (HEK293 [8]) was 185 nM.
Compound `COc1cc2c(cc1OC)CN(CCc1ccc(NC(=O)c3cccc4c(=O)c5cccc(OC)c5[nH]c34)cc1)CC2` [ELACRIDAR] has an EC90 [3] of 51 nM.
For `Cc1cn(-c2cc(NC(=O)c3ccc(C)c(Nc4nccc(-c5cccnc5)n4)c3)cc(C(F)(F)F)c2)cn1` [NILOTINIB], the IC50 (HEK293 [6]) was 128 nM and the IC50 (HEK293 [7]) was 147 nM.
`C=CC(=O)Nc1cccc(Nc2nc(Nc3ccc(N4CCN(C(C)=O)CC4)cc3OC)ncc2C(F)(F)F)c1` [ROCILETINIB] showed an IC50 (HEK293 [6]) of 11.9 nM and an IC50 (HEK293 [7]) of 7.2 nM.
`COc1cc2/c(=N/c3ccc(Br)cc3F)nc[nH]c2cc1OCC1CCN(C)CC1` [VANDETANIB] showed an IC50 (S1-M1-80) of 1240 nM.
`Cc1[nH]c(/C=C2\C(=O)Nc3ccc(F)cc32)c(C)c1C(=O)N[C@H]1CCN(C(=O)N(C)C)C1` [VOROLANIB] gave an IC50 (HEK293 [9]) of 15.5 nM and an IC50 (HEK293 [10]) of 58 nM.
